# Test results published in the supplement of paper PMC10307832.
# Tests used:
# Assay in all cases: relative viability (nuclei count vs DMSO), 5 days (fraction); higher = more cells survive
# A549 = test system: A549
# Method in brief: (§1)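 Relative viability equals treated-well nuclei counts divided by vehicle-well nuclei counts. Counts came from 4× images of lung cancer cell lines grown in 1536-well plates for 5 days after pin-tool dosing on the day after seeding. Dosing used one drug alone or a fixed anchor-drug dose plus five library-drug doses (not always all listed) in √10 steps, and values are medians of duplicate plates.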
# Calu-6 = test system: Calu-6
# Method in brief: as §1
# EBC-1 = test system: EBC-1
# Method in brief: as §1
# EMC-BAC-2 = test system: EMC-BAC-2
# Method in brief: as §1
# HCC-366 = test system: HCC-366
# Method in brief: as §1
# HCC-78 = test system: HCC-78
# Method in brief: as §1
# IA-LM = test system: IA-LM
# Method in brief: as §1
# LCLC-97TM1 = test system: LCLC-97TM1
# Method in brief: as §1
# NCI-H1299 = test system: NCI-H1299
# Method in brief: as §1
# NCI-H1395 = test system: NCI-H1395
# Method in brief: as §1
# NCI-H1703 = test system: NCI-H1703
# Method in brief: as §1
smiles,measurement,setting,value
CCNC(=O)c1noc(-c2cc(C(C)C)c(O)cc2O)c1-c1ccc(CN2CCOCC2)cc1 [Luminespib] + C[C@]1(O)C[C@@H](c2nc(-c3ccc4ccc(-c5ccccc5)nc4c3)c3c(N)nccn32)C1 [Linsitinib] (partner 1 µM),relative viability,A549; first compound 0.002 µM,0.645
same,relative viability,A549; first compound 0.006325 µM,0.583
same,relative viability,A549; first compound 0.02 µM,0.236
same,relative viability,A549; first compound 0.06325 µM,0.14
same,relative viability,A549; first compound 0.2 µM,0.0621
same,relative viability,Calu-6; first compound 0.002 µM,1.08
same,relative viability,Calu-6; first compound 0.006325 µM,0.783
same,relative viability,Calu-6; first compound 0.02 µM,0.712
same,relative viability,Calu-6; first compound 0.06325 µM,0.0985
same,relative viability,Calu-6; first compound 0.2 µM,0.0978
same,relative viability,EBC-1; first compound 0.002 µM,0.919
same,relative viability,EBC-1; first compound 0.006325 µM,0.89
same,relative viability,EBC-1; first compound 0.02 µM,0.273
same,relative viability,EBC-1; first compound 0.06325 µM,0.0912
same,relative viability,EBC-1; first compound 0.2 µM,0.0942
same,relative viability,EMC-BAC-2; first compound 0.002 µM,0.793
same,relative viability,EMC-BAC-2; first compound 0.006325 µM,0.783
same,relative viability,EMC-BAC-2; first compound 0.02 µM,0.665
same,relative viability,EMC-BAC-2; first compound 0.06325 µM,0.788
same,relative viability,EMC-BAC-2; first compound 0.2 µM,0.901
same,relative viability,HCC-366; first compound 0.002 µM,0.56
same,relative viability,HCC-366; first compound 0.006325 µM,0.696
same,relative viability,HCC-366; first compound 0.02 µM,0.462
same,relative viability,HCC-366; first compound 0.06325 µM,0.0199
same,relative viability,HCC-366; first compound 0.2 µM,0.0167
same,relative viability,HCC-78; first compound 0.002 µM,0.485
same,relative viability,HCC-78; first compound 0.06325 µM,0.76
same,relative viability,HCC-78; first compound 0.2 µM,0.251
same,relative viability,IA-LM; first compound 0.002 µM,0.601
same,relative viability,IA-LM; first compound 0.006325 µM,0.424
same,relative viability,IA-LM; first compound 0.02 µM,0.284
same,relative viability,IA-LM; first compound 0.06325 µM,0.0358
same,relative viability,IA-LM; first compound 0.2 µM,0.0299
same,relative viability,LCLC-97TM1; first compound 0.002 µM,0.213
same,relative viability,LCLC-97TM1; first compound 0.006325 µM,0.199
same,relative viability,LCLC-97TM1; first compound 0.02 µM,0.154
same,relative viability,LCLC-97TM1; first compound 0.06325 µM,0.174
same,relative viability,LCLC-97TM1; first compound 0.2 µM,0.192
same,relative viability,NCI-H1299; first compound 0.002 µM,0.978
same,relative viability,NCI-H1299; first compound 0.006325 µM,0.935
same,relative viability,NCI-H1299; first compound 0.02 µM,0.989
same,relative viability,NCI-H1299; first compound 0.06325 µM,0.582
same,relative viability,NCI-H1299; first compound 0.2 µM,0.451
same,relative viability,NCI-H1395; first compound 0.002 µM,1.06
same,relative viability,NCI-H1395; first compound 0.006325 µM,1.02
same,relative viability,NCI-H1395; first compound 0.02 µM,0.759
same,relative viability,NCI-H1395; first compound 0.06325 µM,0.772
same,relative viability,NCI-H1395; first compound 0.2 µM,0.326
same,relative viability,NCI-H1703; first compound 0.002 µM,1.26
same,relative viability,NCI-H1703; first compound 0.006325 µM,0.448
same,relative viability,NCI-H1703; first compound 0.02 µM,0.426
same,relative viability,NCI-H1703; first compound 0.06325 µM,0.0721
same,relative viability,NCI-H1703; first compound 0.2 µM,0.123
CCNC(=O)c1noc(-c2cc(C(C)C)c(O)cc2O)c1-c1ccc(CN2CCOCC2)cc1 [Luminespib] + Cc1nc(NC(=O)N2CCC[C@H]2C(N)=O)sc1-c1ccnc(C(C)(C)C(F)(F)F)c1 [Alpelisib] (partner 2 µM),relative viability,A549; first compound 0.002 µM,0.804
same,relative viability,A549; first compound 0.006325 µM,0.71
same,relative viability,A549; first compound 0.02 µM,0.255
same,relative viability,A549; first compound 0.06325 µM,0.0392
same,relative viability,A549; first compound 0.2 µM,0.036
same,relative viability,Calu-6; first compound 0.002 µM,0.975
same,relative viability,Calu-6; first compound 0.006325 µM,0.949
same,relative viability,Calu-6; first compound 0.02 µM,0.783
same,relative viability,Calu-6; first compound 0.06325 µM,0.131
same,relative viability,Calu-6; first compound 0.2 µM,0.12
same,relative viability,EBC-1; first compound 0.002 µM,0.825
same,relative viability,EBC-1; first compound 0.006325 µM,0.741
same,relative viability,EBC-1; first compound 0.02 µM,0.228
same,relative viability,EBC-1; first compound 0.06325 µM,0.146
same,relative viability,EBC-1; first compound 0.2 µM,0.131
same,relative viability,EMC-BAC-2; first compound 0.002 µM,0.746
same,relative viability,EMC-BAC-2; first compound 0.006325 µM,0.707
same,relative viability,EMC-BAC-2; first compound 0.02 µM,0.61
same,relative viability,EMC-BAC-2; first compound 0.06325 µM,0.771
same,relative viability,EMC-BAC-2; first compound 0.2 µM,0.762
same,relative viability,HCC-366; first compound 0.002 µM,0.442
same,relative viability,HCC-366; first compound 0.006325 µM,0.496
same,relative viability,HCC-366; first compound 0.02 µM,0.312
same,relative viability,HCC-366; first compound 0.06325 µM,0.0181
same,relative viability,HCC-366; first compound 0.2 µM,0.0182
same,relative viability,HCC-78; first compound 0.002 µM,0.309
same,relative viability,HCC-78; first compound 0.06325 µM,0.585
same,relative viability,HCC-78; first compound 0.2 µM,0.216
same,relative viability,IA-LM; first compound 0.002 µM,0.752
same,relative viability,IA-LM; first compound 0.006325 µM,0.788
same,relative viability,IA-LM; first compound 0.02 µM,0.268
same,relative viability,IA-LM; first compound 0.06325 µM,0.0487
same,relative viability,IA-LM; first compound 0.2 µM,0.05
same,relative viability,LCLC-97TM1; first compound 0.002 µM,0.286
same,relative viability,LCLC-97TM1; first compound 0.006325 µM,0.254
same,relative viability,LCLC-97TM1; first compound 0.02 µM,0.19
same,relative viability,LCLC-97TM1; first compound 0.06325 µM,0.323
same,relative viability,LCLC-97TM1; first compound 0.2 µM,0.194
same,relative viability,NCI-H1299; first compound 0.002 µM,1
same,relative viability,NCI-H1299; first compound 0.006325 µM,1
same,relative viability,NCI-H1299; first compound 0.02 µM,1.15
same,relative viability,NCI-H1299; first compound 0.06325 µM,0.961
same,relative viability,NCI-H1299; first compound 0.2 µM,0.483
same,relative viability,NCI-H1395; first compound 0.002 µM,1.37
same,relative viability,NCI-H1395; first compound 0.006325 µM,1.03
same,relative viability,NCI-H1395; first compound 0.02 µM,1.17
same,relative viability,NCI-H1395; first compound 0.06325 µM,0.469
same,relative viability,NCI-H1395; first compound 0.2 µM,0.349
same,relative viability,NCI-H1703; first compound 0.002 µM,0.378
same,relative viability,NCI-H1703; first compound 0.006325 µM,0.367
same,relative viability,NCI-H1703; first compound 0.02 µM,0.186
same,relative viability,NCI-H1703; first compound 0.06325 µM,0.133
same,relative viability,NCI-H1703; first compound 0.2 µM,0.116
